Data on 2 compounds can be found in patent US20250152613A1, “COMPOSITIONS AND METHODS FOR COVID-19 TREATMENT” (101 THERAPEUTICS LTD., priority 2022, published 2025).

Series [1] deals with healthy volunteers.
For series [2], the system named is bleomycin-induced PF mice model. Description: bleomycin-induced pulmonary fibrosis (PF) mice model. The format is in vivo, C57BL/6 mice. The text has this:
Post COVID-19 pulmonary fibrosis (PF) is defined as the presence of persistent and different fibrotic tomographic changes, often combined with impairment in pulmonary function tests. The pathogenesis of post-COVID-19 PF is partially known and likely multifactorial. Excessive production of reactive oxygen species and non-protective mechanical ventilation are potential triggers for post-COVID-19 PF. To explore the beneficial effect of compound 1 in pulmonary fibrosis, a bleomycin-induced PF mice model was utilized. Bleomycin is known for its ability to induce lung injury resulting in an acute inflammatory response, and the inflammatory phase is followed by fibrotic changes. In this model, direct administration of bleomycin to the lungs decreases survival of treated mice, due to vast pulmonary damage. The study was performed in 5 treatment groups of C57BL/6 mice (n=10-12 per group) and included early or late treatment with compound 1 (1 mg/mouse), early treatment with dexamethasone (DEX) in an amount of 0.45 mg/mouse, vehicle, and naïve control groups. Early treatment was initiated on day 1, on the same day as bleomycin administration. Late treatment was initiated on day 14. The test items were injected in the vehicle, dexamethasone and Compound 1 early treatment groups, on days 1, 2, 3, 7, 14, 21 and 28. In the late treatment group, Compound 1 was administered on days 14, 15, 16, 21, 28 and 31. The test items were injected intravenously through the tail vein after pulmonary fibrosis model induction (bleomycin was induced by intratracheal administration of bleomycin (3.5 U/kg)). Animals were monitored for morbidity, mortality, body weight, and clinical signs. Selected clinical signs (i.e., physical appearance, activity, ability to respond to external stimulus, eyes, and respiration quality) were scored to provide a clinical score. Cytokine levels in BALF (Day 33) and serum (Days 17 & 32) were determined.

For series [3], the system named is moderate COVID-19 patients. Put plainly: Phase II/Phase III study of Compound 1 Vs Dexamethasone for moderate COVID-19 with Standard of Care. The format is in vivo, human. Particulars: expected. The protocol: A prospective, randomized, multicenter, parallel group, double-blind, adaptive Phase II/Phase III study to evaluate safety and efficacy of Compound 1 Vs Dexamethasone for moderate COVID-19 disease along with Standard of Care is performed. The total duration of treatment administration for all patients is 3 days. The endpoints of the study are to evaluate efficacy of Compound 1 versus dexamethasone in moderate COVID-19 patients.
Compound 1 is contained in vials, each vial containing 20 mg of Compound 1 to be reconstituted in saline (0.9% NaCl) for bolus intravenous (IV) injection of 5 ml of solution.
The study is designed to determine rate of treatment-emergent adverse events (AE) and serious adverse events (SAE) including changes in clinical condition, vital signs and laboratory parameters.
Other endpoints of the study include: lowering mortality 28 or 60 days from administration; lowering rate of Intensive care units (ICU) admission; lowering mechanical ventilation or vasopressor therapy (28 days follow-up); improved clinical recovery rate [Time Frame: Day 10]-Proportion of patients who recovered within 10 days for which recovery is defined when the patient improves by 2 points in 11-point ordinal scale; an improvement in temperature, heart rate and oxygen saturation on days 1, 2, 4 and 7; decrease in viral load relative to admission levels according to RT-PCR from nasopharyngeal swab on days 3, 5 and 10; changes in levels of CRP, ferritin and CBC with differential; change in cytokine profile and lymphocyte sub-populations; and measurement of ACTH and morning cortisol levels.
Approximately 318 eligible patients are randomized in a 1:1 ratio to one of 2 treatment groups. Group 1: Compound 1, 20 mg per day+Standard of care. Group 2: Dexamethasone 6 mg+Standard of care.
Total expected study duration is approximately 60 days consisting of: a screening period: 7 days (Day-7 to Day 1) prior to randomization. Treatment period: Day 1 to Day 3. End of treatment assessment: Day 3 (for patients receiving Compound 1) and Day X (for Dexamethasone arm, based on investigator' discretion). […]

In series [4] the test system is COVID-19 patients. Particulars: diabetics; RECOVERY trial (Rayman et al. 2021); cited from earlier work.
For series [5] the following is noted: according to the literature; cited from earlier work.
Setting [6] is: 10-30 mg i.v., single and 3 day repeated.
[7] abbreviates: out of 23 possibly or probably related AEs.
[8] abbreviates: early treatment from day 1, i.v., compound 1 1 mg/mouse, DEX 0.45 mg/mouse, day 33, mean±standard deviation.
The mark [9] stands for this setting: late treatment from day 14, i.v., 1 mg/mouse, day 33, mean±standard deviation.
Where [10] appears, read: late treatment with Compound 1, day 33.
The mark [11] stands for this setting: Compound 1 20 mg per day i.v. for 3 days + Standard of care vs Dexamethasone 6 mg.

`C[C@@H]1C[C@H]2[C@@H]3CCC4=C/C(=N/OCCCO[C@H]5O[C@H](CO)[C@@H](O)[C@H](O)[C@@H]5O)C=C[C@]4(C)[C@@]3(F)[C@@H](O)C[C@]2(C)[C@@]1(O)C(=O)CO` [Compound 1, 1-((8S,9R,10S,11S,13S,14S,16R,17R,E)-9-fluoro-11,17-dihydroxy-10,13,16-trimethyl-3-((3-(((2S,3S,4S,5S,6R)-3,4,5-trihydroxy-6-(hydroxymethyl)tetrahydro-2H-pyran-2-yl)oxy)propoxy)imino)-6,7,8,9,10,11,12,13,14,15,16,17-dodecahydro-3H-cyclopenta[a]phenanthren-17-yl)-2-hydroxyethan-1-one]: the “correlation between dose escalation and AEs frequency or severity” value in series [1] (10, 20, 30 mg i.v.) is recorded as “no correlation”. Further, in series [1] (setting [6]), the “AE reported after exposure to Investigational Product” value was determined as 29, the “AEs possibly related to the IP” value is 13, the “AEs probably related to the IP” value worked out at 10 and the “Dose-Limiting Toxicities (DLTs)” value was “No DLTs”. In series [1] (setting [6]), the “Serious Adverse Events (SAEs) or severe AEs” value is recorded as “No Serious Adverse Events (SAEs) or severe AEs”; the cases of hyperglycemia result was “single case”; the “possibly or probably related AEs, total” value was 23; the “post exposure AEs assessed as not related” value turned out to be 6. Moreover, the “total Adverse Events (AE) reported during the study” value in series [1] (15 healthy participants, 10, 20, 30 mg single i.v. doses and 30 mg once a day for 3 days, includes 4 before exposure) came to 33. Further, the “blood glucose changes after administration” value in series [1] (4 hours post any of the 24 administrations) was “no changes”. Further, the “severity of adverse events” value in series [1] (all events) is recorded as “mild to moderate”. Also, the “severity of the hyperglycemia event” value in series [1] (one individual) was “mild and transient”. In series [1] (one individual, increased from 97), the “Blood Glucose after increase” value is listed as 105 mg/dL. In series [1] (setting [7]), the “anxiety, number” value is given as 1; the “anxiety, percent” value is recorded as 4.34%; the “chemistry AEs, number” value is reported as 8; the “chemistry AEs, percent” value is 34.8%. Besides, in series [1] (setting [7]), the “fatigue reports, number” value was 2; the “fatigue reports, percent” value stood at 8.7%; the “hematology AEs, number” value is listed as 6; the “hematology AEs, percent” value was 26.1%. Besides, in series [1] (setting [7]), the “hypertension, number” value worked out at 1; the “hypertension, percent” value came out at 4.34%; the “insomnia, number” value was 2; the “insomnia, percent” value is 8.7%. For the same compound, in series [1] (setting [7]), the “noncardiac chest pain, number” value is recorded as 1; the “noncardiac chest pain, percent” value came out at 4.34%; the “skin rash, number” value was 2; the “skin rash, percent” value is 8.7%. In series [2] (setting [8]), the “% Fibrosis - Digital morphometry” value is reported as 8.25 ± 1.26%, the “Fibrosis score (MT)” value worked out at 2.25 ± 0.5 and the “Pathological score (H&E)” value came out at 2.5 ± 0.58. Moreover, in series [2] (setting [9]), the “% Fibrosis - Digital morphometry” value was 5.2 ± 1.1%, the “Fibrosis score (MT)” value came out at 2 ± 0.7 and the “Pathological score (H&E)” value stood at 2 ± 0.7. For the same compound, the “mortality rate (FIG. 1)” value in series [2] (late treatment from day 14, compared with DEX and Compound 1 early groups, similar to naïve) is on record as “lower mortality rate”. For the same compound, the “overall effect on mortality and disease progression vs early treatment with DEX or Compound 1” value in series [2] (late treatment with Compound 1) is “more profound effect”. In addition, in series [2] (setting [10]), the “lung fibrosis by histopathological evaluation vs. vehicle control” value is on record as “reduction in lung fibrosis”; the “pathological and fibrosis scores and percentage of lung fibrosis compared to DEX treatment” value is given as “slightly lower”. In series [3] (setting [11]), the “hyperglycemia relative to the dexamethasone group” value is listed as “lower” and the “recovery from moderate COVID-19 relative to the dexamethasone group” value was “enhanced”. Also, the mortality entry in series [3] (Compound 1 20 mg per day i.v. for 3 days + Standard of care) is given as “lower mortality”.

Turning to `C[C@@H]1C[C@H]2[C@@H]3CCC4=CC(=O)C=C[C@]4(C)[C@@]3(F)[C@@H](O)C[C@]2(C)[C@@]1(O)C(=O)CO` [DEX, dexamethasone, reference compound], in series [2] (mouse, in vivo, iv), the “% Fibrosis - Digital morphometry” value is on record as 6 ± 1.41%, the “Fibrosis score (MT)” value turned out to be 2.25 ± 0.5 and the “Pathological score (H&E)” value is 2.25 ± 0.5. Further, in series [4], the blood glucose levels result was “significantly elevated”. Moreover, the “most frequently reported adverse effect” value in series [5] is “insomnia”.
